Earlier results on 4 molecules are cited in PubChem BioAssay AID1259409 (Chemical Carcinogenesis Research Information System (CCRIS), 2018).

The subject of this data set is rodent chemically induced tumor inhibition, incidence and multiplicity. Kind of data set: CCRIS tumor inhibitor studies.

Structures are written as SMILES.

Turning to `CCS(=O)(=O)Nc1ncc(C(F)(F)F)cc1NC(=O)C1CCCCC1`, the “tumour outcome (control, treated, inhibition, significance)” value is, setting by setting: (Carcinogen: N-NITROSOBIS(2-OXOPROPYL)AMINE [60599-38-4], Dose [Inhibitor]: 200 PPM FOR 16 WK BEGINNING 1 WK POST CHOLECYSTODUOODENOSTOMY AND LIGATION OF DISTAL END OF COMMON DUCT (STUDY DURATION:, Route [Inhibitor]: ORAL, Species: HAMSTER, Strain/Sex: SYRIAN/FEMALE, Target Tissue: Type of Lesion: EXTRAHEPATIC BILE DUCT: ADENOCARCINOMA, Dose [Carcinogen]: 10 MG/KG BW 1X/WK FOR 10 WK BEGINNING 1 WK POST CHOLECYSTODUODENOSTOMY AND LIGATION OF DISTAL END OF COMMON DUCT (STUDY, Promoter: NONE) 14/26 (54%), 2/15 (13%), 76%, p<0.05; (Carcinogen: N-NITROSOBIS(2-OXOPROPYL)AMINE [60599-38-4], Dose [Inhibitor]: 200 PPM FOR 16 WK BEGINNING 1 WK POST CHOLECYSTODUOODENOSTOMY AND LIGATION OF DISTAL END OF COMMON DUCT (STUDY DURATION:, Route [Inhibitor]: ORAL, Species: HAMSTER, Strain/Sex: SYRIAN/FEMALE, Target Tissue: Type of Lesion: GALL BLADDER: ADENOCARCINOMA, Dose [Carcinogen]: 10 MG/KG BW 1X/WK FOR 10 WK BEGINNING 1 WK POST CHOLECYSTODUOODENOSTOMY AND LIGATION OF DISTAL END OF COMMON DUCT (STUDY, Promoter: NONE) 18/26 (69%), 3/15 (20%), 71%, p<0.01; (Carcinogen: N-NITROSOBIS(2-OXOPROPYL)AMINE [60599-38-4], Dose [Inhibitor]: 200 PPM FOR 16 WK BEGINNING 1 WK POST CHOLECYSTODUOODENOSTOMY AND LIGATION OF DISTAL END OF COMMON DUCT (STUDY DURATION:, Route [Inhibitor]: ORAL, Species: HAMSTER, Strain/Sex: SYRIAN/FEMALE, Target Tissue: Type of Lesion: INTRAHEPATIC BILE DUCT: ADENOCARCINOMA, Dose [Carcinogen]: 10 MG/KG BW 1X/WK FOR 10 WK BEGINNING 1 WK POST CHOLECYSTODUODENOSTOMY AND LIGATION OF DISTAL END OF COMMON DUCT (STUDY, Promoter: NONE) 14/26 (54%), 3/15 (20%), 63%, p<0.05.
For the molecule `CCN(CC)CCCCOc1ccc(/C(=C(/Cl)c2ccccc2)c2ccccc2)cc1`, the “tumour outcome (control, treated, inhibition, significance)” value (Carcinogen: N-METHYL-N-NITROSOUREA, 684-93-5, Dose [Inhibitor]: 0, 0.003 MG/KG BW 1/D FOR 90 D BEGINNING 1 WK POST CARCINOGEN DOSE (STUDY DURATION: 90 D), Route [Inhibitor]: GAVAGE, Species: RAT, Strain/Sex: SPRAGUE-DAWLEY/FEMALE, Target Tissue: Type of Lesion: MAMMARY GLAND: CARCINOMA, Dose [Carcinogen]: 50 MG/KG BW ONCE, Promoter: NONE USED) is 100%, 50%, 50%, not calculated; the “tumour outcome (control, treated, inhibition, significance)” value (Carcinogen: N-METHYL-N-NITROSOUREA, 684-93-5, Dose [Inhibitor]: 0, 0.01 MG/KG BW 1/D FOR 90 D BEGINNING 1 WK POST CARCINOGEN DOSE (STUDY DURATION: 90 D), Route [Inhibitor]: GAVAGE, Species: RAT, Strain/Sex: SPRAGUE-DAWLEY/FEMALE, Target Tissue: Type of Lesion: MAMMARY GLAND: CARCINOMA, Dose [Carcinogen]: 50 MG/KG BW ONCE, Promoter: NONE USED) was 100%, 30%, 70%, not calculated; the “tumour outcome (control, treated, inhibition, significance)” value (Carcinogen: N-METHYL-N-NITROSOUREA, 684-93-5, Dose [Inhibitor]: 0, 0.1 MG/KG BW 1/D FOR 85 D BEGINNING 1 WK POST CARCINOGEN DOSE (STUDY DURATION: 85 D), Route [Inhibitor]: GAVAGE, Species: RAT, Strain/Sex: SPRAGUE-DAWLEY/FEMALE, Target Tissue: Type of Lesion: MAMMARY GLAND: CARCINOMA, Dose [Carcinogen]: 50 MG/KG BW ONCE, Promoter: NONE USED) is on record as 100%, 5%, 95%, not calculated; the “tumour outcome (control, treated, inhibition, significance)” value (Carcinogen: N-METHYL-N-NITROSOUREA, 684-93-5, Dose [Inhibitor]: 0, 1 MG/KG BW 1/D FOR 85 D BEGINNING 1 WK POST CARCINOGEN DOSE (STUDY DURATION: 85 D), Route [Inhibitor]: GAVAGE, Species: RAT, Strain/Sex: SPRAGUE-DAWLEY/FEMALE, Target Tissue: Type of Lesion: MAMMARY GLAND: CARCINOMA, Dose [Carcinogen]: 50 MG/KG BW ONCE, Promoter: NONE USED) was 100%, 5%, 95%, not calculated.
Turning to `O=C1N[C@H](C(=O)O)CS1`, the “tumour outcome (control, treated, inhibition, significance)” value (Carcinogen: DIETHYLNITROSAMINE, 55-18-5, Dose [Inhibitor]: 0, 600 MG/KG BW BY INTRAPERITONEAL INJECTION ON DAYS 13, 14 AND 15 OF AGE THEN 4 G/KG DIET FROM 21 TO 161 DAYS OF AGE (S, Route [Inhibitor]: INTRAPERITONEAL, ORAL, Species: MOUSE, Strain/Sex: C3H/MALE, Target Tissue: Type of Lesion: LIVER: ADENOMA, Dose [Carcinogen]: 4 MG/KG IN TRICAPRYLIN ONCE ON DAY 15 OF AGE, Promoter: NONE USED) is on record as 100%, 100%, 0%, not significant.
With `CC(C(=O)O)c1ccc(-c2ccccc2)c(F)c1` (stereo unspecified), the “tumour outcome (control, treated, inhibition, significance)” value was 91%, 60%, 34%, p<0.05 (Carcinogen: N-METHYL-N-NITROSOUREA, 684-93-5, Dose [Inhibitor]: 31.25 MG/KG DIET DAILY STARTING 1 WK AFTER CARCINOGEN ADMINISTRATION AND CONTINUING THROUGH THE END OF THE STUDY (STUDY, Route [Inhibitor]: ORAL, Species: RAT, Strain/Sex: SPRAGUE-DAWLEY/FEMALE, Target Tissue: Type of Lesion: MAMMARY GLAND: CARCINOMA, Dose [Carcinogen]: 25 MG/KG BW ONCE, Promoter: NONE USED); 100%, 100%, 0%, not significant (Carcinogen: N-METHYL-N-NITROSOUREA, 684-93-5, Dose [Inhibitor]: 31.25 MG/KG DIET DAILY STARTING 1 WK AFTER CARCINOGEN ADMINISTRATION AND CONTINUING THROUGH THE END OF THE STUDY (STUDY, Route [Inhibitor]: ORAL, Species: RAT, Strain/Sex: SPRAGUE-DAWLEY/FEMALE, Target Tissue: Type of Lesion: MAMMARY GLAND: CARCINOMA, Dose [Carcinogen]: 50 MG/KG BW ONCE, Promoter: NONE USED); 91%, 60%, 34%, p<0.05 (Carcinogen: N-METHYL-N-NITROSOUREA, 684-93-5, Dose [Inhibitor]: 31.25 MG/KG IN DIET STARTING 1 WK AFTER CARCINOGEN DOSE AND CONTINUING THROUGH THE END OF THE STUDY (STUDY DURATION: 180, Route [Inhibitor]: ORAL, Species: RAT, Strain/Sex: SPRAGUE-DAWLEY/FEMALE, Target Tissue: Type of Lesion: MAMMARY GLAND: CARCINOMA, Dose [Carcinogen]: 25 MG/KG BW ONCE, Promoter: NONE USED); 100%, 100%, 0%, not significant (Carcinogen: N-METHYL-N-NITROSOUREA, 684-93-5, Dose [Inhibitor]: 31.25 MG/KG IN DIET STARTING 1 WK AFTER CARCINOGEN DOSE AND CONTINUING THROUGH THE END OF THE STUDY (STUDY DURATION: 180, Route [Inhibitor]: ORAL, Species: RAT, Strain/Sex: SPRAGUE-DAWLEY/FEMALE, Target Tissue: Type of Lesion: MAMMARY GLAND: CARCINOMA, Dose [Carcinogen]: 50 MG/KG BW ONCE, Promoter: NONE USED); 91%, 68%, 25%, p<0.1 (Carcinogen: N-METHYL-N-NITROSOUREA, 684-93-5, Dose [Inhibitor]: 62.5 MG/KG DIET DAILY STARTING 1 WK AFTER CARCINOGEN ADMINISTRATION AND CONTINUING THROUGH THE END OF THE STUDY (STUDY D, Route [Inhibitor]: ORAL, Species: RAT, Strain/Sex: SPRAGUE-DAWLEY/FEMALE, Target Tissue: Type of Lesion: MAMMARY GLAND: CARCINOMA, Dose [Carcinogen]: 25 MG/KG BW ONCE, Promoter: NONE USED); 100%, 100%), 0%, not significant (Carcinogen: N-METHYL-N-NITROSOUREA, 684-93-5, Dose [Inhibitor]: 62.5 MG/KG DIET DAILY STARTING 1 WK AFTER CARCINOGEN ADMINISTRATION AND CONTINUING THROUGH THE END OF THE STUDY (STUDY D, Route [Inhibitor]: ORAL, Species: RAT, Strain/Sex: SPRAGUE-DAWLEY/FEMALE, Target Tissue: Type of Lesion: MAMMARY GLAND: CARCINOMA, Dose [Carcinogen]: 50 MG/KG BW ONCE, Promoter: NONE USED). In addition, the “tumour outcome (control, treated, inhibition, significance)” value (Carcinogen: N-METHYL-N-NITROSOUREA, 684-93-5, Dose [Inhibitor]: 62.5 MG/KG IN DIET STARTING 1 WK AFTER CARCINOGEN DOSE AND CONTINUING THROUGH THE END OF THE STUDY (STUDY DURATION: 180, Route [Inhibitor]: ORAL, Species: RAT, Strain/Sex: SPRAGUE-DAWLEY/FEMALE, Target Tissue: Type of Lesion: MAMMARY GLAND: CARCINOMA, Dose [Carcinogen]: 25 MG/KG BW ONCE, Promoter: NONE USED) is recorded as 91%, 68%, 25%, p<0.1 and the “tumour outcome (control, treated, inhibition, significance)” value (Carcinogen: N-METHYL-N-NITROSOUREA, 684-93-5, Dose [Inhibitor]: 62.5 MG/KG IN DIET STARTING 1 WK AFTER CARCINOGEN DOSE AND CONTINUING THROUGH THE END OF THE STUDY (STUDY DURATION: 180, Route [Inhibitor]: ORAL, Species: RAT, Strain/Sex: SPRAGUE-DAWLEY/FEMALE, Target Tissue: Type of Lesion: MAMMARY GLAND: CARCINOMA, Dose [Carcinogen]: 50 MG/KG BW ONCE, Promoter: NONE USED) is 100%, 100%, 0%, not significant.
